Values of other authors, collected in US8653135B1, “Alternating sympathomimetic therapy for the treatment of respiratory aliments” (Sovereign Pharmaceuticals, LLC, priority 2007, dated 2014).

Settings: when given in adequate dosages

CNC[C@H](O)c1cccc(O)c1 [Phenylephrine, phenylephrine]
effect on heart rate: slows the heart rate
